Molecular target: T1, PDE7B protein (Bos taurus) (UniProt A6QP37)
T1 sequence (whole entry): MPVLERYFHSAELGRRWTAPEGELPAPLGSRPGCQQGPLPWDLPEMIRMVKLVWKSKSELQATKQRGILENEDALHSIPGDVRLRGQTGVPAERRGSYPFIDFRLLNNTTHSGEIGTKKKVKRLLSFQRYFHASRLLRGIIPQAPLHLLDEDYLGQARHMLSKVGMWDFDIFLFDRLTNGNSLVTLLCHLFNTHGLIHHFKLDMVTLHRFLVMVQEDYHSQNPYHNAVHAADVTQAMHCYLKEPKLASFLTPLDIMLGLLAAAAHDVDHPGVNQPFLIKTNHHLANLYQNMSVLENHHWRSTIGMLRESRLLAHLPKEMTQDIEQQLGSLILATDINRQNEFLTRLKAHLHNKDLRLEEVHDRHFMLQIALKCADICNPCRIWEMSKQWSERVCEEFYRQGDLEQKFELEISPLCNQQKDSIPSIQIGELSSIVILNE
Assay: Inhibition of Bos taurus (bovine) heart cAMP-dependent phosphodiesterase assessed as inhibition of cyclic AMP to 5' AMP after 20 min by spectrophotometry relative to theophylline

| Compound | Ratio |
| --- | --- |
| O=c1c2ccccc2nc(-c2ccccc2)n1-c1nc2ccc([N+](=O)[O-])cc2s1 | 1.47 |
| COc1cccc2sc(-n3c(-c4ccccc4)nc4c(Br)cc(Br)cc4c3=O)nc12 | 1.18 |
| Cn1c(=O)c2[nH]cnc2n(C)c1=O | 1 |
| Cc1cc(C)c2nc(-n3c(-c4ccccc4)nc4ccccc4c3=O)sc2c1 | 1.35 |
| Cc1ccc2sc(-n3c(-c4ccccc4)nc4ccccc4c3=O)nc2c1 | 1.29 |
| Cc1cccc2sc(-n3c(-c4ccccc4)nc4c(Br)cc(Br)cc4c3=O)nc12 | 1.14 |
| Cc1ccc2sc(-n3c(-c4ccccc4)nc4c(Br)cc(Br)cc4c3=O)nc2c1 | 1.13 |
| O=c1c2cc(Br)cc(Br)c2nc(-c2ccccc2)n1-c1nc2ccc(Br)cc2s1 | 0.927 |
| O=c1c2ccccc2nc(-c2ccccc2)n1-c1nc2ccc(Br)cc2s1 | 1.28 |
| CCOc1cccc2sc(-n3c(-c4ccccc4)nc4ccccc4c3=O)nc12 | 1.38 |
| CCOc1ccc2nc(-n3c(-c4ccccc4)nc4ccccc4c3=O)sc2c1 | 1.38 |
| Cc1cc(C)c2nc(-n3c(-c4ccccc4)nc4c(Br)cc(Br)cc4c3=O)sc2c1 | 1.17 |
| O=c1c2ccccc2nc(-c2ccccc2)n1-c1nc2cc(Cl)ccc2s1 | 1.21 |
| O=c1c2cc(Br)cc(Br)c2nc(-c2ccccc2)n1-c1nc2ccc([N+](=O)[O-])cc2s1 | 0.869 |
| CCOc1cccc2sc(-n3c(-c4ccccc4)nc4c(Br)cc(Br)cc4c3=O)nc12 | 1.21 |
| O=c1c2cc(Br)cc(Br)c2nc(-c2ccccc2)n1-c1nc2cc(Cl)ccc2s1 | 0.844 |
| O=c1c2cc(Br)cc(Br)c2nc(-c2ccccc2)n1-c1nc2ccccc2s1 | 1.08 |
| Cc1cccc2sc(-n3c(-c4ccccc4)nc4ccccc4c3=O)nc12 | 1.27 |
| COc1ccc2nc(-n3c(-c4ccccc4)nc4c(Br)cc(Br)cc4c3=O)sc2c1 | 1.2 |

Continued, values first:

| Ratio | Compound |
| --- | --- |
| 1.18 | COc1ccc2sc(-n3c(-c4ccccc4)nc4c(Br)cc(Br)cc4c3=O)nc2c1 |
| 1.41 | CCOc1ccc2sc(-n3c(-c4ccccc4)nc4ccccc4c3=O)nc2c1 |
| 1.19 | CCOc1ccc2nc(-n3c(-c4ccccc4)nc4c(Br)cc(Br)cc4c3=O)sc2c1 |
| 1.34 | COc1ccc2sc(-n3c(-c4ccccc4)nc4ccccc4c3=O)nc2c1 |
| 1.22 | O=c1c2ccccc2nc(-c2ccccc2)n1-c1nc2ccccc2s1 |
| 1.35 | COc1ccc2nc(-n3c(-c4ccccc4)nc4ccccc4c3=O)sc2c1 |
| 1.22 | CCOc1ccc2sc(-n3c(-c4ccccc4)nc4c(Br)cc(Br)cc4c3=O)nc2c1 |
| 1.33 | COc1cccc2sc(-n3c(-c4ccccc4)nc4ccccc4c3=O)nc12 |

From ChEMBL document CHEMBL3046434, “cAMP-dependent phosphodiesterase inhibition and SAR studies on novel 6,8-disubstituted 2-phenyl-3-(substituted benzothiazole-2-yl)-4[3H]-quinazolinone” (Med Chem Res, 2009)
